Target: T1, human recombinant IL-17A (Homo sapiens, UniProt Q16552)
T1 construct: purchased R&D Systems 7955-IL/CF
T1 sequence (Q16552 24-155): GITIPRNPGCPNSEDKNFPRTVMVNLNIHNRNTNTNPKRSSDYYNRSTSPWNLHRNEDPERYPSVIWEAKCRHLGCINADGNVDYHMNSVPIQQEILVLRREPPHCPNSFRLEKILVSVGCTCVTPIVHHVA
Experiment: IL-17A AlphaLISA assay (block binding of IL-17A to its receptor IL-17RA)
Conditions: compounds pre-incubated with the IL-17A for 30 min (indicated by * in Table A); for IC50: read-out: AlphaLISA pIC50 (converted)
Procedure, shortened: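 PBS with 0.05% Tween-20 and 0.1% BSA. IL-17A stock 7.5 nM, IL-17RA/Fc stock 5 nM; compound–cytokine pre-incubation 24 h at RT, or 30 min where marked, then 90 min with receptor. pIC50 from 4-parameter logistic AlphaLISA signal, normalised to DMSO and 6 μM reference inhibitor.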

`CCc1nocc1C(=O)N[C@H](C(=O)Nc1ccc(-c2c(C)noc2C)nc1)C1CCCCCC1` [Example 171, (S)—N-(1-cycloheptyl-2-((6-(3,5-dimethylisoxazol-4-yl)pyridin-3-yl)amino)-2-oxoethyl)-3-ethylisoxazole-4-carboxamide] showed an IC50 of 79.4 nM.
Work on `Cc1noc(C)c1-c1ccc(NC(=O)[C@@H](NC(=O)c2ccnn2C)C2CCCCCC2)cn1` [Example 172, (S)—N-(1-cycloheptyl-2-((6-(3,5-dimethylisoxazol-4-yl)pyridin-3-yl)amino)-2-oxoethyl)-1-methyl-1H-pyrazole-5-carboxamide] yielded an IC50 of 200 nM.
With `Cn1nccc1C(=O)N[C@H](C(=O)Nc1ccc(-c2c(C3CC3)nnn2C)cn1)C1CCCCCC1` [Example 173, (S)—N-(1-cycloheptyl-2-((5-(4-cyclopropyl-1-methyl-1H-1,2,3-triazol-5-yl)pyridin-2-yl)amino)-2-oxoethyl)-1-methyl-1H-pyrazole-5-carboxamide] the IC50 was 158 nM.
Compound `Cn1nccc1C(=O)N[C@H](C(=O)Nc1ccc(-c2c(Cl)cnn2C)cn1)C1CCCCCC1` [Example 174, (S)—N-(2-((5-(4-chloro-1-methyl-1H-pyrazol-5-yl)pyridin-2-yl)amino)-1-cycloheptyl-2-oxoethyl)-1-methyl-1H-pyrazole-5-carboxamide] has an IC50 of 158 nM.
`CCc1nocc1C(=O)N[C@H](C(=O)Nc1ccc(-c2c(Cl)cnn2C)cn1)C1CCCCCC1` [Example 175, (S)—N-(2-((5-(4-chloro-1-methyl-1H-pyrazol-5-yl)pyridin-2-yl)amino)-1-cycloheptyl-2-oxoethyl)-3-ethylisoxazole-4-carboxamide] showed an IC50 of 31.6 nM.
`CCn1nccc1C(=O)N[C@H](C(=O)Nc1ccc(-c2c(Cl)cnn2C)cn1)C1CCCCCC1` [Example 176, (S)—N-(2-((5-(4-chloro-1-methyl-1H-pyrazol-5-yl)pyridin-2-yl)amino)-1-cycloheptyl-2-oxoethyl)-1-ethyl-1H-pyrazole-5-carboxamide] was tested, and the IC50 was 39.8 nM.
Compound `Cc1cnn(C)c1-c1ccc(NC(=O)[C@@H](NC(=O)c2ccnn2C)C2CCCCC2)nc1` [Example 177, (S)—N-(1-cyclohexyl-2-((5-(1,4-dimethyl-1H-pyrazol-5-yl)pyridin-2-yl)amino)-2-oxoethyl)-1-methyl-1H-pyrazole-5-carboxamide] has an IC50 of 200 nM.
In the case of `CCc1nocc1C(=O)N[C@H](C(=O)Nc1ccc(-c2c(C)cnn2C)cn1)C1CCCCC1` [Example 178, (S)—N-(1-cyclohexyl-2-((5-(1,4-dimethyl-1H-pyrazol-5-yl)pyridin-2-yl)amino)-2-oxoethyl)-3-ethylisoxazole-4-carboxamide], the IC50 is reported as 79.4 nM.
`Cc1cnn(C)c1-c1ncc(NC(=O)[C@@H](NC(=O)c2ccnn2C)[C@H]2CC[C@H](C)CC2)cc1F` [Example 179, N—((S)-2-((6-(1,4-dimethyl-1H-pyrazol-5-yl)-5-fluoropyridin-3-yl)amino)-1-((1r,4S)-4-methylcyclohexyl)-2-oxoethyl)-1-methyl-1H-pyrazole-5-carboxamide] showed an IC50 of 501 nM.
For `CCc1nocc1C(=O)N[C@H](C(=O)Nc1cnc(-c2c(C)cnn2C)c(F)c1)[C@H]1CC[C@H](C)CC1` [Example 180, N—((S)-2-((6-(1,4-dimethyl-1H-pyrazol-5-yl)-5-fluoropyridin-3-yl)amino)-1-((1r,4S)-4-methylcyclohexyl)-2-oxoethyl)-3-ethylisoxazole-4-carboxamide], the IC50 was 158 nM.
Work on `Cc1cnn(C)c1-c1ccc(NC(=O)[C@@H](NC(=O)c2conc2C)C2CCCCC2)nc1` [Example 181, (S)—N-(1-cyclohexyl-2-((5-(1,4-dimethyl-1H-pyrazol-5-yl)pyridin-2-yl)amino)-2-oxoethyl)-3-methylisoxazole-4-carboxamide] yielded an IC50 of 158 nM.
For `Cn1nccc1C(=O)N[C@H](C(=O)Nc1ccc(-c2c(CO)cnn2C)cn1)C1CCCCCC1` [Example 182, (S)—N-(1-cycloheptyl-2-((5-(4-(hydroxymethyl)-1-methyl-1H-pyrazol-5-yl)pyridin-2-yl)amino)-2-oxoethyl)-1-methyl-1H-pyrazole-5-carboxamide], the IC50 was 31.6 nM.
For `Cc1cnn(C)c1-c1ccc(NC(=O)C(NC(=O)c2ccnn2C)C2CC3CCC2C3)nc1` (stereo not drawn) [Example 184, N-(1-(bicyclo[2.2.1]heptan-2-yl)-2-((5-(1,4-dimethyl-1H-pyrazol-5-yl)pyridin-2-yl)amino)-2-oxoethyl)-1-methyl-1H-pyrazole-5-carboxamide], the IC50 was 251 nM.
`Cc1cnn(C)c1-c1ccc(NC(=O)C(NC(=O)c2ccnn2C)[C@H]2CC[C@H](C(F)(F)F)CC2)nc1` (stereo partly drawn) [Example 185, N-(2-((5-(1,4-dimethyl-1H-pyrazol-5-yl)pyridin-2-yl)amino)-2-oxo-1-((1r,4r)-4-(trifluoromethyl)cyclohexyl)ethyl)-1-methyl-1H-pyrazole-5-carboxamide] gave an IC50 of 631 nM.
`CCn1nccc1C(=O)NC(C(=O)Nc1ccc(-c2c(C)cnn2C)cn1)[C@H]1CC[C@H](C(F)(F)F)CC1` (stereo partly drawn) [Example 186, N-(2-((5-(1,4-dimethyl-1H-pyrazol-5-yl)pyridin-2-yl)amino)-2-oxo-1-((1r,4r)-4-(trifluoromethyl)cyclohexyl)ethyl)-1-ethyl-1H-pyrazole-5-carboxamide] was tested, and the IC50 was 398 nM.
Work on `CCc1nocc1C(=O)NC(C(=O)Nc1ccc(-c2c(C)cnn2C)cn1)[C@H]1CC[C@H](C(F)(F)F)CC1` (stereo partly drawn) [Example 187, N-(2-((5-(1,4-dimethyl-1H-pyrazol-5-yl)pyridin-2-yl)amino)-2-oxo-1-((1r,4r)-4-(trifluoromethyl)cyclohexyl)ethyl)-3-ethylisoxazole-4-carboxamide] yielded an IC50 of 398 nM.
In the case of `CCc1nocc1C(=O)N[C@H](C(=O)Nc1ccc(-c2c(C)nnn2C)cn1)[C@H]1CC[C@H](C)CC1` [Example 188, N—((S)-2-((5-(1,4-dimethyl-1H-1,2,3-triazol-5-yl)pyridin-2-yl)amino)-1-((1r,4S)-4-methylcyclohexyl)-2-oxoethyl)-3-ethylisoxazole-4-carboxamide], the IC50 is reported as 100 nM.
With `CCn1nccc1C(=O)N[C@H](C(=O)Nc1cnc(-c2c(C)cnn2C)c(F)c1)[C@H]1CC[C@H](C)CC1` [Example 189, N—((S)-2-((6-(1,4-dimethyl-1H-pyrazol-5-yl)-5-fluoropyridin-3-yl)amino)-1-((1r,4S)-4-methylcyclohexyl)-2-oxoethyl)-1-ethyl-1H-pyrazole-5-carboxamide] the “AlphaLISA pIC50” value was 6.8*.
With `Cc1nnn(CC(=O)N(C)C)c1-c1ccc(NC(=O)[C@@H](NC(=O)c2ccnn2C)C2CCCCCC2)nc1` [Example 190, (S)—N-(1-cycloheptyl-2-((5-(1-(2-(dimethylamino)-2-oxoethyl)-4-methyl-1H-1,2,3-triazol-5-yl)pyridin-2-yl)amino)-2-oxoethyl)-1-methyl-1H-pyrazole-5-carboxamide] the IC50 was 794 nM.
For `Cc1cnn(C)c1-c1ccc(NC(=O)[C@@H](NC(=O)c2conc2C(C)C)[C@H]2CC[C@H](C)CC2)nc1` [Example 191, N—((S)-2-((5-(1,4-dimethyl-1H-pyrazol-5-yl)pyridin-2-yl)amino)-1-((1r,4S)-4-methylcyclohexyl)-2-oxoethyl)-3-isopropylisoxazole-4-carboxamide], the IC50 was 39.8 nM.
`Cc1cnn(C)c1-c1ccc(NC(=O)[C@@H](NC(=O)c2conc2C(C)(C)C)[C@H]2CC[C@H](C)CC2)nc1` [Example 192, 3-(tert-butyl)-N—((S)-2-((5-(1,4-dimethyl-1H-pyrazol-5-yl)pyridin-2-yl)amino)-1-((1r,4S)-4-methylcyclohexyl)-2-oxoethyl)isoxazole-4-carboxamide] gave an IC50 of 200 nM.
